Values quoted from earlier work, collected in patent US7977373B2, “Prodrugs of ion channel modulating compounds and uses thereof” (Cardiome Pharma Corp., priority 2004, dated 2011).

## CCCCCCCN(CC)CCCC(O)c1ccc(NS(C)(=O)=O)cc1 (centres unmarked) [ibutilide]
  patients requiring cardioversion for refractory ventricular arrhythmias: ~1.7%
estimated, patients
  risk of ventricular proarrhythmia: ~4.4%
